{"source": "patent US20220304950A1", "about": "“[…] THE TREATMENT OF PATIENTS WITH MAJOR DEPRESSIVE DISORDER, INCLUDING SUICIDALITY” (JANSSEN PHARMACEUTICALS, INC., priority 2019, published 2022)", "tested_on": "adult patients with MDD assessed to be at imminent risk for suicide", "assay": "Adverse events (TEAEs, SAEs), Study 1 (Example 4)", "protocol": "This is a randomized, double-blind, placebo-controlled, multicenter study to evaluate the efficacy of intranasal esketamine 84 mg compared with intranasal placebo in addition to comprehensive standard of care in reducing the symptoms of MDD, including suicidal ideation, in adult male and female patients who were assessed to be at imminent risk for suicide.\nThe study consisted of a screening evaluation performed within 48 hours prior to the Day 1 intranasal dose, immediately followed by a 25-day double-blind treatment phase (Day 1 to 25), and a 65-day follow-up phase (Day 26 to Day 90). The total study duration for each subject was approximately 13 weeks.\nThe study consisted of a screening evaluation performed within 24 to 48 hours prior to the Day 1 dose, immediately followed by a 25-day double-blind treatment phase (Day 1 to 25) with twice-weekly dosing sessions, and a 9-week follow up phase (Day 26 to Day 90). All participants received comprehensive SOC, including in-patient psychiatric hospitalization and the initiation or optimization of standard antidepressant medication (determined by the treating physician based on clinical judgment and practice guidelines).", "key": {"[1]": {"conditions": "Esk 84 mg + SOC, double-blind phase"}}}
{"smiles": "CN[C@]1(c2ccccc2Cl)CCCCC1=O", "note": "[esketamine, (S)-2-(2-chlorophenyl)-2-(methylamino)cyclohexanone]", "values": [{"measurement": "SAEs: depression-related events, number", "setting": "ESK+SOC, follow-up phase", "value": 3}, {"measurement": "SAEs: suicidal ideation-related events, number", "setting": "ESK+SOC, follow-up phase", "value": 7}, {"measurement": "Serious TEAE Aggression, subjects n", "setting": "[1]", "value": 0}, {"measurement": "Serious TEAE Depression suicidal, subjects %", "setting": "[1]", "value": "(1.8%)"}, {"measurement": "Serious TEAE Depression, subjects %", "setting": "[1]", "value": "(0.9%)"}, {"measurement": "Serious TEAE Depression, subjects n", "setting": "[1]", "value": 1}, {"measurement": "Serious TEAE Diabetic ketoacidosis, subjects %", "setting": "[1]", "value": "(0.9%)"}, {"measurement": "Serious TEAE Diabetic ketoacidosis, subjects n", "setting": "[1]", "value": 1}, {"measurement": "Serious TEAE Hepatobiliary disorders, subjects n", "setting": "[1]", "value": 0}, {"measurement": "Serious TEAE Hypertransaminasaemia, subjects n", "setting": "[1]", "value": 0}, {"measurement": "Serious TEAE Metabolism and nutrition disorders, subjects %", "setting": "[1]", "value": "(0.9%)"}, {"measurement": "Serious TEAE Metabolism and nutrition disorders, subjects n", "setting": "[1]", "value": 1}, {"measurement": "Serious TEAE Psychiatric disorders, subjects n", "setting": "[1]", "value": 3}, {"measurement": "Serious TEAE Suicidal ideation, subjects n", "setting": "[1]", "value": 0}, {"measurement": "Serious TEAE Suicide attempt, subjects %", "setting": "[1]", "value": "(0.9%)"}, {"measurement": "Serious TEAE Suicide attempt, subjects n", "setting": "[1]", "value": 1}, {"measurement": "Subjects with 1 or more TEAEs, %", "setting": "[1]", "value": 88.5, "unit": "%"}, {"measurement": "Subjects with related TEAEs, %", "setting": "[1]", "value": "(79.6%)"}, {"measurement": "Subjects with related severe TEAEs, %", "setting": "[1]", "value": "(6.2%)"}, {"measurement": "Subjects with serious TEAEs, %", "setting": "[1]", "value": 3.5, "unit": "%"}, {"measurement": "TEAE Anxiety, subjects %", "setting": "[1]", "value": "(5.3%)"}, {"measurement": "TEAE Anxiety, subjects n", "setting": "[1]", "value": 6}, {"measurement": "TEAE Blood pressure increased, subjects %", "setting": "[1]", "value": "(16.8%)"}, {"measurement": "TEAE Blood pressure increased, subjects n", "setting": "[1]", "value": 19}, {"measurement": "TEAE Constipation, subjects %", "setting": "[1]", "value": "(13.3%)"}, {"measurement": "TEAE Constipation, subjects n", "setting": "[1]", "value": 15}, {"measurement": "TEAE Dissociation, subjects %", "setting": "[1]", "value": 29.2, "unit": "%"}, {"measurement": "TEAE Dissociation, subjects n", "setting": "[1]", "value": 33}, {"measurement": "TEAE Dizziness postural, subjects %", "setting": "[1]", "value": "(5.3%)"}, {"measurement": "TEAE Dizziness postural, subjects n", "setting": "[1]", "value": 6}, {"measurement": "TEAE Dizziness, subjects %", "setting": "[1]", "value": 35.4, "unit": "%"}, {"measurement": "TEAE Dizziness, subjects n", "setting": "[1]", "value": 40}, {"measurement": "TEAE Dysgeusia, subjects n", "setting": "[1]", "value": 16}, {"measurement": "TEAE Ear and labyrinth disorders, subjects %", "setting": "[1]", "value": "(8.0%)"}, {"measurement": "TEAE Ear and labyrinth disorders, subjects n", "setting": "[1]", "value": 9}, {"measurement": "TEAE Eye disorders, subjects %", "setting": "[1]", "value": "(11.5%)"}, {"measurement": "TEAE Eye disorders, subjects n", "setting": "[1]", "value": 13}, {"measurement": "TEAE Gastrointestinal disorders, subjects %", "setting": "[1]", "value": "(38.1%)"}, {"measurement": "TEAE Gastrointestinal disorders, subjects n", "setting": "[1]", "value": 43}, {"measurement": "TEAE Headache, subjects n", "setting": "[1]", "value": 21}, {"measurement": "TEAE Hypoaesthesia, subjects %", "setting": "[1]", "value": "(7.1%)"}, {"measurement": "TEAE Hypoaesthesia, subjects n", "setting": "[1]", "value": 8}, {"measurement": "TEAE Insomnia, subjects %", "setting": "[1]", "value": "(6.2%)"}, {"measurement": "TEAE Insomnia, subjects n", "setting": "[1]", "value": 7}, {"measurement": "TEAE Investigations, subjects %", "setting": "[1]", "value": "(24.8%)"}, {"measurement": "TEAE Investigations, subjects n", "setting": "[1]", "value": 28}, {"measurement": "TEAE Nausea, subjects %", "setting": "[1]", "value": 20.4, "unit": "%"}, {"measurement": "TEAE Nausea, subjects n", "setting": "[1]", "value": 23}, {"measurement": "TEAE Nervous system disorders, subjects %", "setting": "[1]", "value": "(68.1%)"}, {"measurement": "TEAE Nervous system disorders, subjects n", "setting": "[1]", "value": 77}, {"measurement": "TEAE Psychiatric disorders, subjects %", "setting": "[1]", "value": "(45.1%)"}, {"measurement": "TEAE Psychiatric disorders, subjects n", "setting": "[1]", "value": 51}, {"measurement": "TEAE Sedation, subjects %", "setting": "[1]", "value": "(6.2%)"}, {"measurement": "TEAE Sedation, subjects n", "setting": "[1]", "value": 7}, {"measurement": "TEAE Somnolence, subjects n", "setting": "[1]", "value": 21}, {"measurement": "TEAE Vertigo, subjects %", "setting": "[1]", "value": "(6.2%)"}, {"measurement": "TEAE Vertigo, subjects n", "setting": "[1]", "value": 7}, {"measurement": "TEAE Vision blurred, subjects %", "setting": "[1]", "value": "(8.8%)"}, {"measurement": "TEAE Vision blurred, subjects n", "setting": "[1]", "value": 10}, {"measurement": "TEAE Vomiting, subjects %", "setting": "[1]", "value": "(7.1%)"}, {"measurement": "TEAE Vomiting, subjects n", "setting": "[1]", "value": 8}, {"measurement": "TEAE dysgeusia, subjects %", "setting": "[1]", "value": "(14.2%)"}, {"measurement": "TEAE headache, subjects %", "setting": "[1]", "value": "(18.6%)"}, {"measurement": "TEAE leading to discontinuation: Aggression, subjects n", "setting": "[1]", "value": 0}, {"measurement": "TEAE leading to discontinuation: Atrioventricular block first degree, subjects n", "setting": "[1]", "value": 0}, {"measurement": "TEAE leading to discontinuation: Blood pressure diastolic increased, subjects n", "setting": "[1]", "value": 0}, {"measurement": "TEAE leading to discontinuation: Blood pressure increased, subjects %", "setting": "[1]", "value": 0.9, "unit": "%"}, {"measurement": "TEAE leading to discontinuation: Blood pressure increased, subjects n", "setting": "[1]", "value": 1}, {"measurement": "TEAE leading to discontinuation: Cardiac disorders, subjects n", "setting": "[1]", "value": 0}, {"measurement": "TEAE leading to discontinuation: Confusional state, subjects %", "setting": "[1]", "value": 0.9, "unit": "%"}, {"measurement": "TEAE leading to discontinuation: Confusional state, subjects n", "setting": "[1]", "value": 1}, {"measurement": "TEAE leading to discontinuation: Dissociation, subjects %", "setting": "[1]", "value": 0.9, "unit": "%"}, {"measurement": "TEAE leading to discontinuation: Dissociation, subjects n", "setting": "[1]", "value": 1}]}
